Tests used:
[1] = molecular target: BaPDH (WT-BaPDH, full-length ACT-containing prephenate dehydrogenase) (Bacillus anthracis, UniProt Q81P63); experiment: biochemical
[2] = test system: O=C(O)C(=O)CC1(C(=O)O)C=CC(O)C=C1; experiment: purified protein; details: pH 7.5

Sequence of BaPDH (WT-BaPDH, full-length ACT-containing prephenate dehydrogenase) (Q81P63 1-378 limits assumed): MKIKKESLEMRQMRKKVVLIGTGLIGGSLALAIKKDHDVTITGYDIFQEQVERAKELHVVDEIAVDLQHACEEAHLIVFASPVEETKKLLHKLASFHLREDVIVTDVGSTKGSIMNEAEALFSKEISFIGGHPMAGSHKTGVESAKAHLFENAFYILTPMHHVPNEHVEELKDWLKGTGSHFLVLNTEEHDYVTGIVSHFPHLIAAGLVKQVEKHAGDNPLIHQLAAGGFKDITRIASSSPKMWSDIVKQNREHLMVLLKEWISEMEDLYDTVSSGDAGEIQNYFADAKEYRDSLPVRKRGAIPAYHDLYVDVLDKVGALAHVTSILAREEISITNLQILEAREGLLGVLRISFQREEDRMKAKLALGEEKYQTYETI

## N[C@@H](Cc1ccc(O)cc1)C(=O)O [tyrosine]
[1]
  Ki: 1500 ± 200 nM

## BaPDH (WT-BaPDH, full-length ACT-containing prephenate dehydrogenase) (Bacillus anthracis)
[2]
  Km: 78 ± 10 µM

From publication doi:10.1101/2025.10.30.685691v1 (biorxiv, 2025)
